Assay: Relative bioavailability of CYT-0387 tablet vs capsule, food and omeprazole effect, healthy subjects
Assay type: in vivo, human
Details: from 100 to 800 mg
Experimental: CYT-0387 is a selective small molecule inhibitor of Janus kinase 1 and 2 (JAK1/JAK2), and is currently under investigation to treat myelofibrosis. In a Phase 1/2 study in myelofibrosis patients, 300 mg CYT-0387 capsule once daily was selected as Phase 3 dose based on a favorable benefit:risk profile. An immediate release tablet formulation (CYT-0387 tablet) was developed for further clinical evaluation. The relative bioavailability of CYT-0387 tablet vs capsule was evaluated in this study to identify Phase 3 dose of CYT-0387 tablet. CYT-0387 tablet (100 to 300 mg) vs capsule (300 mg) pharmacokinetics (PK) after a single dose was evaluated in healthy subjects. CYT-0387 tablet PK at supratherapeutic doses (400 and 800 mg), under fed and fasted conditions, and with an acid reducing agent (i.e., omeprazole) was also evaluated. Intensive PK sampling occurred up to 36 hours postdose. Safety was monitored throughout the study. A parametric analysis of variance (ANOVA) using a mixed-effects model was used to fit to the natural logarithmic transformation of PK parameters (AUC and Cmax). The 90% confidence intervals were constructed for the ratio of geometric means of CYT-0387 tablet PK at 100, 150, 200 and 300 mg vs CYT-0387 capsule 300 mg, using equivalence bounds of 70% to 143% for AUC and Cmax. A similar approach was used to assess the effect of food and omeprazole.

dose proportionality of plasma exposures: less-than-dose-proportionally
Structure (SMILES): N#CCNC(=O)c1ccc(-c2ccnc(Nc3ccc(N4CCOCC4)cc3)n2)cc1 [CYT-0387, N-(cyanomethyl)-4-(2-(4-morpholinophenylamino)pyrimidin-4-yl)benzamide]

Reference: US9469613B2, “(N-(cyanomethyl)-4-(2-(4-morpholinophenylamino)pyrimidin-4-yl)benzamide” (Gilead Sciences, Inc., priority 2014, dated 2016)
